{
  "source": "ChEMBL document CHEMBL1125786",
  "about": "“Synthesis and biological evaluation of hydroxamate-based iron chelators” (1991)",
  "data": [
    {"system": "Rattus norvegicus", "assay": "Total iron output induced by the compound in bile (non-iron-overloaded bile duct cannulated rat), after 9 hours of po administration.", "assay_type": "functional", "values": [
      {"smiles": "COCCOCCOCCN(O)C(=O)CCC(=O)NCCCCCN(O)C(=O)CCC(=O)NCCCCCN(O)C(=O)COCCOCCOC", "Iron output": 42.5},
      {"smiles": "COCCOCCOCCN(O)C(=O)CCC(=O)NCCCCCN(O)C(=O)CCC(=O)NCCCCCN(O)C(C)=O", "Iron output": 56.8}
    ]},
    {"system": "Rattus norvegicus", "assay": "Total iron output induced by the compound in bile (non-iron-overloaded bile duct cannulated rat), after 24 hours of sc administration.", "assay_type": "functional", "values": [
      {"smiles": "COCCOCCOCCN(O)C(=O)CCC(=O)NCCCCCN(O)C(=O)CCC(=O)NCCCCCN(O)C(=O)COCCOCCOC", "Iron output": 539.7},
      {"smiles": "COCCOCCOCCN(O)C(=O)CCC(=O)NCCCCCN(O)C(=O)CCC(=O)NCCCCCN(O)C(C)=O", "Iron output": 599.5}
    ]},
    {"system": "Rattus norvegicus", "assay": "Total iron output induced by the compound in bile (non-iron-overloaded bile duct cannulated rat), after 21 hours of po administration.", "assay_type": "functional", "values": [
      {"smiles": "COCCOCCOCCN(O)C(=O)CCC(=O)NCCCCCN(O)C(=O)CCC(=O)NCCCCCN(O)C(=O)COCCOCCOC", "Iron output": 81.3},
      {"smiles": "COCCOCCOCCN(O)C(=O)CCC(=O)NCCCCCN(O)C(=O)CCC(=O)NCCCCCN(O)C(C)=O", "Iron output": 89}
    ]},
    {"system": "Rattus norvegicus", "assay": "Total iron output induced by the compound in bile (non-iron-overloaded bile duct cannulated rat), after 24 hours of po administration.", "assay_type": "functional", "values": [
      {"smiles": "COCCOCCOCCN(O)C(=O)CCC(=O)NCCCCCN(O)C(=O)CCC(=O)NCCCCCN(O)C(=O)COCCOCCOC", "Iron output": 86.6},
      {"smiles": "COCCOCCOCCN(O)C(=O)CCC(=O)NCCCCCN(O)C(=O)CCC(=O)NCCCCCN(O)C(C)=O", "Iron output": 93.7}
    ]},
    {"system": "Rattus norvegicus", "assay": "Total iron output induced by the compound in bile (non-iron-overloaded bile duct cannulated rat), after 21 hours of sc administration.", "assay_type": "functional", "values": [
      {"smiles": "COCCOCCOCCN(O)C(=O)CCC(=O)NCCCCCN(O)C(=O)CCC(=O)NCCCCCN(O)C(=O)COCCOCCOC", "Iron output": 534.2},
      {"smiles": "COCCOCCOCCN(O)C(=O)CCC(=O)NCCCCCN(O)C(=O)CCC(=O)NCCCCCN(O)C(C)=O", "Iron output": 585.9}
    ]},
    {"system": "Rattus norvegicus", "assay": "Total iron output induced by the compound in bile (non-iron-overloaded bile duct cannulated rat), after 18 hours of po administration.", "assay_type": "functional", "values": [
      {"smiles": "COCCOCCOCCN(O)C(=O)CCC(=O)NCCCCCN(O)C(=O)CCC(=O)NCCCCCN(O)C(=O)COCCOCCOC", "Iron output": 74.6},
      {"smiles": "COCCOCCOCCN(O)C(=O)CCC(=O)NCCCCCN(O)C(=O)CCC(=O)NCCCCCN(O)C(C)=O", "Iron output": 83.8}
    ]},
    {"system": "Rattus norvegicus", "assay": "Total iron output induced by the compound in non-iron-overloaded bile duct cannulated rat(Treated-control), after 24 hours of sc administration.", "assay_type": "functional", "values": [
      {"smiles": "COCCOCCOCCN(O)C(=O)CCC(=O)NCCCCCN(O)C(=O)CCC(=O)NCCCCCN(O)C(=O)COCCOCCOC", "Iron output": 519.8},
      {"smiles": "COCCOCCOCCN(O)C(=O)CCC(=O)NCCCCCN(O)C(=O)CCC(=O)NCCCCCN(O)C(C)=O", "Iron output": 602.7}
    ]},
    {"system": "Rattus norvegicus", "assay": "Total iron output induced by the compound in bile (non-iron-overloaded bile duct cannulated rat), after 6 hours of po administration.", "assay_type": "functional", "values": [
      {"smiles": "COCCOCCOCCN(O)C(=O)CCC(=O)NCCCCCN(O)C(=O)CCC(=O)NCCCCCN(O)C(=O)COCCOCCOC", "Iron output": 31.7},
      {"smiles": "COCCOCCOCCN(O)C(=O)CCC(=O)NCCCCCN(O)C(=O)CCC(=O)NCCCCCN(O)C(C)=O", "Iron output": 42.8}
    ]},
    {"system": "Rattus norvegicus", "assay": "Total iron output induced by the compound in bile (non-iron-overloaded bile duct cannulated rat), after 3 hours of sc administration.", "assay_type": "functional", "values": [
      {"smiles": "COCCOCCOCCN(O)C(=O)CCC(=O)NCCCCCN(O)C(=O)CCC(=O)NCCCCCN(O)C(=O)COCCOCCOC", "Iron output": 106.9},
      {"smiles": "COCCOCCOCCN(O)C(=O)CCC(=O)NCCCCCN(O)C(=O)CCC(=O)NCCCCCN(O)C(C)=O", "Iron output": 117.3}
    ]},
    {"system": "Rattus norvegicus", "assay": "Total iron output induced by the compound in bile (non-iron-overloaded bile duct cannulated rat), after 15 hours of sc administration.", "assay_type": "functional", "values": [
      {"smiles": "COCCOCCOCCN(O)C(=O)CCC(=O)NCCCCCN(O)C(=O)CCC(=O)NCCCCCN(O)C(=O)COCCOCCOC", "Iron output": 509.1},
      {"smiles": "COCCOCCOCCN(O)C(=O)CCC(=O)NCCCCCN(O)C(=O)CCC(=O)NCCCCCN(O)C(C)=O", "Iron output": 519.6}
    ]},
    {"system": "Rattus norvegicus", "assay": "Total iron output induced by the compound in bile (non-iron-overloaded bile duct cannulated rat), after 15 hours of po administration.", "assay_type": "functional", "values": [
      {"smiles": "COCCOCCOCCN(O)C(=O)CCC(=O)NCCCCCN(O)C(=O)CCC(=O)NCCCCCN(O)C(=O)COCCOCCOC", "Iron output": 67.9},
      {"smiles": "COCCOCCOCCN(O)C(=O)CCC(=O)NCCCCCN(O)C(=O)CCC(=O)NCCCCCN(O)C(C)=O", "Iron output": 76.5}
    ]},
    {"system": "Rattus norvegicus", "assay": "Total iron output induced by the compound in bile (non-iron-overloaded bile duct cannulated rat), after 9 hours of sc administration.", "assay_type": "functional", "values": [
      {"smiles": "COCCOCCOCCN(O)C(=O)CCC(=O)NCCCCCN(O)C(=O)CCC(=O)NCCCCCN(O)C(=O)COCCOCCOC", "Iron output": 362.6},
      {"smiles": "COCCOCCOCCN(O)C(=O)CCC(=O)NCCCCCN(O)C(=O)CCC(=O)NCCCCCN(O)C(C)=O", "Iron output": 374.6}
    ]},
    {"system": "Rattus norvegicus", "assay": "Total iron output induced by the compound in non-iron-overloaded bile duct cannulated rat, after 24 hours of sc administration.", "assay_type": "functional", "values": [
      {"smiles": "COCCOCCOCCN(O)C(=O)CCC(=O)NCCCCCN(O)C(=O)CCC(=O)NCCCCCN(O)C(=O)COCCOCCOC", "Iron output": 585},
      {"smiles": "COCCOCCOCCN(O)C(=O)CCC(=O)NCCCCCN(O)C(=O)CCC(=O)NCCCCCN(O)C(C)=O", "Iron output": 667.9}
    ]},
    {"system": "Rattus norvegicus", "assay": "Total iron output induced by the compound in bile (non-iron-overloaded bile duct cannulated rat), after 12 hours of sc administration.", "assay_type": "functional", "values": [
      {"smiles": "COCCOCCOCCN(O)C(=O)CCC(=O)NCCCCCN(O)C(=O)CCC(=O)NCCCCCN(O)C(=O)COCCOCCOC", "Iron output": 467},
      {"smiles": "COCCOCCOCCN(O)C(=O)CCC(=O)NCCCCCN(O)C(=O)CCC(=O)NCCCCCN(O)C(C)=O", "Iron output": 456.1}
    ]},
    {"system": "Rattus norvegicus", "assay": "Total iron output induced by the compound in non-iron-overloaded bile duct cannulated rat, after 24 hours of po administration.", "assay_type": "functional", "values": [
      {"smiles": "COCCOCCOCCN(O)C(=O)CCC(=O)NCCCCCN(O)C(=O)CCC(=O)NCCCCCN(O)C(=O)COCCOCCOC", "Iron output": 99.8},
      {"smiles": "COCCOCCOCCN(O)C(=O)CCC(=O)NCCCCCN(O)C(=O)CCC(=O)NCCCCCN(O)C(C)=O", "Iron output": 108.7}
    ]},
    {"system": "Rattus norvegicus", "assay": "Total iron output induced by the compound in bile (non-iron-overloaded bile duct cannulated rat), after 12 hours of po administration.", "assay_type": "functional", "values": [
      {"smiles": "COCCOCCOCCN(O)C(=O)CCC(=O)NCCCCCN(O)C(=O)CCC(=O)NCCCCCN(O)C(=O)COCCOCCOC", "Iron output": 59.7},
      {"smiles": "COCCOCCOCCN(O)C(=O)CCC(=O)NCCCCCN(O)C(=O)CCC(=O)NCCCCCN(O)C(C)=O", "Iron output": 67.5}
    ]},
    {"system": "Rattus norvegicus", "assay": "Total iron output induced by the compound in urine (non-iron-overloaded bile duct cannulated rat), after 24 hours of sc administration.", "assay_type": "functional", "values": [
      {"smiles": "COCCOCCOCCN(O)C(=O)CCC(=O)NCCCCCN(O)C(=O)CCC(=O)NCCCCCN(O)C(=O)COCCOCCOC", "Iron output": 45.3},
      {"smiles": "COCCOCCOCCN(O)C(=O)CCC(=O)NCCCCCN(O)C(=O)CCC(=O)NCCCCCN(O)C(C)=O", "Iron output": 68.4}
    ]},
    {"system": "Rattus norvegicus", "assay": "Total iron output induced by the compound in bile (non-iron-overloaded bile duct cannulated rat), after 18 hours of sc administration.", "assay_type": "functional", "values": [
      {"smiles": "COCCOCCOCCN(O)C(=O)CCC(=O)NCCCCCN(O)C(=O)CCC(=O)NCCCCCN(O)C(=O)COCCOCCOC", "Iron output": 526},
      {"smiles": "COCCOCCOCCN(O)C(=O)CCC(=O)NCCCCCN(O)C(=O)CCC(=O)NCCCCCN(O)C(C)=O", "Iron output": 561.2}
    ]},
    {"system": "Rattus norvegicus", "assay": "Total iron output induced by the compound in urine (non-iron-overloaded bile duct cannulated rat), after 24 hours of po administration.", "assay_type": "functional", "values": [
      {"smiles": "COCCOCCOCCN(O)C(=O)CCC(=O)NCCCCCN(O)C(=O)CCC(=O)NCCCCCN(O)C(=O)COCCOCCOC", "Iron output": 13.3},
      {"smiles": "COCCOCCOCCN(O)C(=O)CCC(=O)NCCCCCN(O)C(=O)CCC(=O)NCCCCCN(O)C(C)=O", "Iron output": 15}
    ]},
    {"system": "Rattus norvegicus", "assay": "Total iron output induced by the compound in non-iron-overloaded bile duct cannulated rat(Treated-control), after 24 hours of po administration.", "assay_type": "functional", "values": [
      {"smiles": "COCCOCCOCCN(O)C(=O)CCC(=O)NCCCCCN(O)C(=O)CCC(=O)NCCCCCN(O)C(=O)COCCOCCOC", "Iron output": 34.6},
      {"smiles": "COCCOCCOCCN(O)C(=O)CCC(=O)NCCCCCN(O)C(=O)CCC(=O)NCCCCCN(O)C(C)=O", "Iron output": 43.5}
    ]},
    {"system": "Rattus norvegicus", "assay": "Total iron output induced by the compound in bile (non-iron-overloaded bile duct cannulated rat), after 3 hours of po administration.", "assay_type": "functional", "values": [
      {"smiles": "COCCOCCOCCN(O)C(=O)CCC(=O)NCCCCCN(O)C(=O)CCC(=O)NCCCCCN(O)C(=O)COCCOCCOC", "Iron output": 16.3},
      {"smiles": "COCCOCCOCCN(O)C(=O)CCC(=O)NCCCCCN(O)C(=O)CCC(=O)NCCCCCN(O)C(C)=O", "Iron output": 20.2}
    ]},
    {"system": "Rattus norvegicus", "assay": "Total iron output induced by the compound in bile (non-iron-overloaded bile duct cannulated rat), after 6 hours of sc administration.", "assay_type": "functional", "values": [
      {"smiles": "COCCOCCOCCN(O)C(=O)CCC(=O)NCCCCCN(O)C(=O)CCC(=O)NCCCCCN(O)C(=O)COCCOCCOC", "Iron output": 244.4},
      {"smiles": "COCCOCCOCCN(O)C(=O)CCC(=O)NCCCCCN(O)C(=O)CCC(=O)NCCCCCN(O)C(C)=O", "Iron output": 262.5}
    ]}
  ]
}
